In the test the target is T1, recombinant human Aβ42 peptide (Homo sapiens, UniProt P05067).
T1 construct: recombinant human Aβ42 peptide; purchased BioLegend 843801
The test is described as follows: Ion mobility mass spectrometry (IMS MS) anti-Aβ42 oligomer activity / binding study. The class given is biochemical. More on the design: key to Presence of Aβ42 Pentamer / Presence of Aβ42 Hexamer / Presence of Aβ42 Decamer / Presence of Aβ42 Dimer / Presence of Aβ42 Trimer / Presence of Aβ42 Tetramer: Y = yes, presence of oligomer species; N = no presence of oligomer species. The method, then:
The conditions used for mass spectrometry, using a Waters Synapt G2-S, were as follows: positive polarity in sensitivity mode, capillary=2.5 kV, nebulizer=2 mbar, source temperature=80° C., desolvation temperature=60° C., sample cone setting=35 V, source offset setting=60 V, and mass range=500 to 4000 m/z. These conditions were maintained throughout the study to ensure consistency of the data and to avoid influencing the detection of oligomers due to preferential ionization conditions.
Samples were directly infused into the mass spectrometer at a flow rate of 10 μL/min using a Protea PM-1000 Syringe Pump and Hamilton 1 mL Syringe. The data acquisition of the amyloid peptide was performed using a Waters Synapt G2-S quadrupole time of flight mass spectrometer (Q-TOF MS) with traveling wave ion mobility (Waters Corp., Milford, MA). The data were acquired using the systems sensitivity mode to allow for the detection of the less abundant oligomers. Samples were infused at room temperature. The IMS MS studies were conducted at Protea, Inc. (Morgantown, WV).
1 mg of recombinant human Aβ42 peptide from BioLegend (99% purity, cat #843801) was reconstituted in 200 μL of Fisher Optima LC/MS grade water (cat #W6-1) and vortexed vigorously for 2 minutes to solubilize the peptide creating a 5 mg/mL solution. Samples were then diluted to a final concentration of 22 pmol/μL prior to incubation. The sample mixtures were then incubated at room temperature for 0, 4 and 24 hours. After the acquisition of incubated samples was completed, the raw data were analyzed using the Waters MassLynx v2.4 suite with DriftScover v2.7 to visualize drift times for the peptide.
Aβ42 species characterization using IMS MS was performed by direct infusion at 22 pmol/μL in water. The peptide was prepared in water to maintain the native state conformation of the peptide and ion mobility data acquisition was performed to detect and characterize the conformational changes of the native state monomer and any oligomers that may have formed during the incubation.
The data acquisition for Aβ42 peptide was performed using a Waters Synapt G2-S quadrupole time of flight mass spectrometer (Q-TOF MS) with traveling wave ion mobility (Waters Corp., Milford, MA). The data were acquired using the systems sensitivity mode to allow for the detection of the less abundant oligomers. Samples were infused at room temperature as above.
1 mg of 3-SPA was reconstituted in 1 mL of Fisher Optima LC/MS grade water (cat #W6-1) and vortexed vigorously for 2 minutes until completely dissolved. The sample was then diluted to create […], and 22,000 pmol/μL solutions to perform a 100-fold, and 1,000-fold molar excess for the binding experiments with Aβ42 peptide.
1 mg of recombinant human Aβ42 peptide was reconstituted in 200 μL of Fisher Optima LC/MS grade water and vortexed vigorously to solubilize to a 5 mg/mL solution. Samples were then diluted to their final concentrations prior to incubation. The sample mixtures were incubated at room temperature for 0, 4 and 24 hours, followed by analysis as described above.
To address the high conformational flexibility of Aβ42 and to characterize its interaction with 3-SPA, we used ion mobility mass spectrometry (IMS), with a quadrupole time of flight mass spectrometer (Q-TOF MS) with traveling wave ion mobility. Resulting effect of modulation of Aβ conformational space is the prevention of oligomer formation. We have found not only concentration dependency but also time-dependency of this anti-Aβ42 oligomeric effect of 3-SPA as indicated in FIG. 3 and FIG. 4. 100- vs 1,000-fold molar excess of 3-SPA over Aβ42 results in a different sub-species profile of inhibition of Aβ42 oligomer formation. The activity is also compared with the same excess dependency of tramiprosate.

[1] abbreviates: 100:1 excess ratio compound:protein.
The mark [2] stands for this setting: 1000:1 excess ratio compound:protein.

Entries after “also recorded” stand apart in the source; their conditions may differ.

T1 sequence (P05067 672-713 limits assumed): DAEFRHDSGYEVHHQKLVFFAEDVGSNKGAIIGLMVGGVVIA

For `O=C(O)CCS(=O)(=O)O` [3-SPA, 3-sulfopropanoic acid], under setting [1], the “Presence of Aβ42 Decamer” value is listed as “N”, the “Presence of Aβ42 Dimer” value is “Y”, the “Presence of Aβ42 Hexamer” value is recorded as “Y” and the “Presence of Aβ42 Pentamer” value is “Y”. Further, under setting [1], the “Presence of Aβ42 Tetramer” value is given as “Y” and the “Presence of Aβ42 Trimer” value is “Y”. For the same compound, under setting [2], the “Presence of Aβ42 Decamer” value is “N”, the “Presence of Aβ42 Dimer” value is given as “N”, the “Presence of Aβ42 Hexamer” value is recorded as “N” and the “Presence of Aβ42 Pentamer” value is “Y”. Further, under setting [2], the “Presence of Aβ42 Tetramer” value is “N” and the “Presence of Aβ42 Trimer” value is “N”. Besides, the “Inhibition of formation of Aβ42 oligomers (in words)” value (4 hr incubation, ratio 1:1000) is “inhibits the formation of oligomers with the exception of dimers, trimers and pentamers; also recorded: Detection of Aβ42 dimers, trimers and pentamers”. The “Inhibition of formation of Aβ42 oligomers (in words)” value (24 hours incubation, 1,000-fold excess) is recorded as “Near complete prevention of formation of Aβ42 oligomers except for pentamers; also recorded: the only oligomeric species not inhibited were pentamers of Aβ42; also recorded: Only pentamers were detected”.

Source of the values: patent US12083082B2, “Methods for treating neurodegenerative disorders” (Alzheon, Inc., priority 2018, dated 2024).
